Entries after “also recorded” stand apart in the source; their conditions may differ. Like-named read-outs stand apart in the source and are kept apart here.
How the values were obtained:
[1] = test system: sandwich-cultured hepatocytes; experiment: Cumulative uptake, Biliary Excretion Index and in vitro biliary clearance in 96-hr sandwich-cultured hepatocytes; assay type: in vitro ADME, rat; conditions: for cumulative uptake in standard buffer compared to Ca2+-free buffer: 96-hr cultured hepatocytes; for Biliary Excretion Index: Equation 3
Experimental: To prepare sandwich-cultured hepatocytes, neutralized collagen solution (0.1 ml, about 1.5 to about 3.0 mg/ml, pH 7.4) was added to the monolayers 24 hr after the cells were seeded. […] Medium was changed on a daily basis until the fourth day after the cells were seeded. These hepatocytes were referred to as 96-hr or long-term cultured hepatocytes.
(§1) Hepatocytes cultured in a collagen-sandwich configuration were incubated in 3 ml standard buffer or Ca^2+-free buffer at 37° C. for 10 min. After removing the incubation buffer, uptake was initiated by addition of 3 ml standard buffer containing substrate to each dish. After incubation for designated times, cumulative uptake was terminated by aspirating the incubation solution and rinsing 4 times with 3 ml ice-cold standard buffer to remove extracellular substrate. After washing, 2 ml of 1% Triton X-100 solution was added to culture dishes, and the cells were lysed by shaking the dish on a shaker for 20 min at room temperature. An aliquot (1 ml) of lysate was analyzed by liquid scintillation spectrometry. Bio-Rad DC Protein Assay Kit (Bio-Rad Laboratories, Hercules, Calif.) was used to determine the protein concentration in the culture extracts using bovine serum albumin as standard. […] All values for substrate uptake into cell monolayers were corrected for nonspecific binding to the collagen by subtracting the substrate uptake determined in the appropriate control dishes in the absence of cells as described previously.
(§2) Uptake data were normalized to the protein content and expressed as mean±SD from 3-4 separate preparations of hepatocytes. Statistical differences between mean values for the 10-min cumulative substrate uptake in the presence and absence of Ca^2+ were determined by the use of the well-known Student's t-test. A P value of <0.05 was considered significant.
Biliary excretion of substrates in the monolayers was quantitatively assessed by the Biliary Excretion Index based on Equation 3:
[formula] where Uptakestandard and Uptake Ca^2+-free represent the cumulative uptake of substrate over a 10-min interval in the hepatocyte monolayers pre-incubated in standard buffer and in Ca^2+-free buffer, respectively.
Biliary clearance in the sandwich-cultured hepatocytes, ClB(culture) (ml/min/kg per body weight), was calculated according to Equation 4:
[formula] where Timeincubation was 10 min and Concentrationmedium represented the initial substrate concentration in the incubation medium. In some embodiments, a biliary clearance value can be calculated as the ratio of the mass in the bile canaliculi and the area under the curve (AUC) in culture medium, wherein the AUC represents the integral of candidate compound (e.g. xenobiotic concentration) in the medium from time 0 to time T (time can be measure in any desired units, and is usually measured in minutes). Indeed, the term AUC can refer to the following equation: […]

[2] = test system: short-term cultured hepatocytes; experiment: Cumulative uptake in 3-hr (short-term) cultured hepatocyte monolayers, standard vs Ca2+-free buffer; assay type: in vitro ADME, rat; conditions: for cumulative uptake in standard buffer compared to Ca2+-free buffer: 3-hr cultured hepatocytes
Experimental: Hepatocytes were isolated with a two-step perfusion method. Briefly, rats were anesthetized with ketamine and xylazine (60 and 12mg/kg i.p., respectively) prior to portal vein cannulation. The liver was perfused in situ with oxygenated Ca^2+-free Krebs-Henseleit bicarbonate buffer containing collagenase type 1 (0.5 mg/ml) for 10 min. The hepatic capsule was removed with forceps. The hepatocytes were released by shaking the liver gently in 100 ml DMEM.
The released cells were filtered through a sterile nylon mesh (70-μm). The hepatocyte suspensions were centrifuged at 50 xg for 3 min. The cell pellet was resuspended in 25 ml DMEM and an equal volume of 90% isotonic polyvinylpyrrolidone-coated silica colloid centrifugation medium (pH 7.4) sold under the registered trademark PERCOLL® by Pharmacia, Inc. of Piscataway, N.J. The resulting cell suspension was centrifuged at about 70 to about 150 xg for 5 min. The pellet was resuspended in 50 ml DMEM and the cell suspensions were combined into one tube followed by centrifugation at 50 xg for 3 min. Hepatocyte viability was determined by trypan blue exclusion. Only those hepatocyte preparations with viability greater than 90% were utilized for further studies.
Hepatocyte suspensions were prepared with DMEM containing 5% fetal calf serum, 1 μM dexamethasone and 4 mg/L insulin. Hepatocyte suspensions were added to the precoated dishes at a density of about 2-3×10^6 cells/60-mm dish. Approximately 1 hr after plating the cells, the medium was aspirated and 3-ml fresh DMEM was added. For transport studies, hepatocytes that had been seeded for 3-5 hr without collagen overlay were defined as 3-hr or short-term cultured hepatocytes.
as §1, §2

[3] = In vivo biliary excretion and biliary clearance in rats (literature data, Equations 1 and 2); conditions: rat
Experimental: In vivo biliary clearance, ClB (ml/min/kg body weight), was calculated according to Equation 1:
[formula] where Amountbile(O-T) represents the amount of parent drug recovered in bile from 0 to time T when most drug was eliminated from the systemic circulation, and AUCO-T represents the area under the plasma concentration-time curve from 0 to time T (in minutes).
The in vivo intrinsic biliary clearance (ClBin, ml/min/kg body weight) was estimated according to Equation 2 based on the well-stirred model of hepatic disposition assuming biliary excretion is the predominant elimination pathway (Pang et al., J. Pharmacokinet. Biopharm. 5:625-653, 1977).
[formula] where Q represents rat hepatic plasma/blood flow, 40-70 ml/min/kg of body weight {(blood flow×(1-hematocrit)}; Pollack et al., J. Pharmacol. Exp. Ther. 18:197-202, (1989), and ClB represents biliary clearance for model compounds reported in the literature or calculated from Equation 1.
The five model substrates representing a diverse spectrum of biliary excretion properties were selected to examine the relationship between the percentage of the dose excreted in bile in vivo in rats and the Biliary Excretion Index in sandwich-cultured hepatocytes. Information regarding the percentage of the dose excreted in rat bile after i.v. administration was obtained from the literature.

[4] = cited from earlier work; for percentage of the dose excreted in rat bile: i.v. administration, in 1 hr, unchanged drug; for in vivo biliary clearance: rat, literature values
Mrp3 = experiment: Immunoblot analysis of Mrp3 expression in siRNA-treated SCRH; assay type: cell-based, rat; conditions: immunoblot
Experimental: (§3) HepG2 cells were maintained in Dulbecco's modified Eagle's medium/F-12 plus 10% FBS. Rat hepatocytes were isolated from male Wistar rats (220-300g) by in situ collagenase perfusion (Annaert et al., Drug Metab Dispos 29:1277-1283, 2001). Cells were seeded at a density of 1.5×10^6 cells per well onto polystyrene 6-well plates pre-coated with rat tail type I collagen; a top layer of gelled collagen was overlaid 24 hr after plating. Rat hepatocyte cultures were maintained in Dulbecco's modified Eagle's medium supplemented with 0.1 μM dexamethasone and 0.1% ITS culture supplement (6.25 mg/mL insulin, 6.25 mg/mL transferrin, 6.25 μg/mL selenous acid, 5.35 mg/mL linoleic acid, and […]). Medium was changed every 24 hr.
(§4) HepG2 cells were seeded at a density of 2×10^5 cells per well onto 12-well plates 24 hr before transfection. A mixture of 100 ng firefly luciferase expression plasmid (PGL3-FL) and 100 ng Renilla luciferase expression plasmid (PRL-TK) and various amounts of firefly luciferase siRNA were used per well. Transfections of SCRH were performed at 20 hr after plating, unless specifically indicated. siRNA (2 μg unless specified) was used per well in 6-well plates. siRNA and DNA were formulated for transfection using […]™ transfection reaction kit (QIAGEN Inc. Valencia, Calif. USA). Briefly, siRNA was condensed in Enhancer EC at a ratio of 1:2 (μg of total RNA and/or DNA : μl of Enhancer), and formulated with TransMessenger at a ratio of 1:4 (μg of RNA and /or DNA: μl of TransMessenger) and then incubated with cells. For transfections of HepG2 cells, medium was changed after an overnight incubation with siRNA. For transfections of SCRH, cells were incubated with siRNA for 4 hr and then were overlaid with collagen. siRNA delivery into hepatocytes was more efficient before overlay of the top collagen layer. The effect of transfection was examined 48 hr later.
(§5) Cells were harvested 48 hr post transfection and lysed in 1% SDS, 1 mM EDTA plus COMPLETE™ protease inhibitor cocktail (Roche Diagnostics, Mannheim, Germany). The protein concentration of the clear cell lysate was determined with the BCA Protein Assay Reagent Kit (Pierce Biotech, Inc. Rockford, Ill.). […] of total protein per lane was resolved by electrophoresis on NuPAGE 4-12% Bis-Tris Gel (Invitrogen Life Technology, Carlsbad, Calif. USA) and were transferred onto polyvinylidone difluoride membranes. The following antibodies were used to probe the membranes: anti-Mrp2 (M2111-6, Alexis Biochemicals, San Diego, Calif. USA); anti-Mrp3 (kind gift from Dr. Yuichi Sugiyama); anti-Radixin (Chemicon International, Inc. Temecula, Calif. USA), anti-β-actin (MAB1501, Chemicon).

Mrp2 = experiment: Immunoblot analysis of Mrp2 expression in siRNA-treated SCRH; assay type: cell-based, rat; conditions: 2 μg siRNA per well, 48 hr; for reduction in endogenous Mrp2 expression: vs siFL or non-transfected SCRH, average
Experimental: as §3, §4, §5

radixin = experiment: Immunoblot analysis of radixin expression in siRNA-treated SCRH; assay type: cell-based, rat
Experimental: as §3
as §4, with “For transfections of SCRH, cells were incubated with siRNA for 4 hr and then were overlaid with collagen. siRNA delivery into hepatocytes was more efficient before overlay of the top collagen layer. The effect of transfection was examined 48 hr later.” left out
Cells were harvested 48 hr post transfection and lysed in 1% SDS, 1 mM EDTA plus COMPLETE™ protease inhibitor cocktail (Roche Diagnostics, Mannheim, Germany). The protein concentration of the clear cell lysate was determined with the BCA Protein Assay Reagent Kit (Pierce Biotech, Inc. Rockford, Ill.). […]

[5] = 96-hr sandwich-cultured hepatocytes, 10-min cumulative uptake

| Compound | cumulative uptake in standard buffer compared to Ca2+-free buffer [1] | cumulative uptake in standard buffer compared to Ca2+-free buffer [2] | percentage of the dose excreted in rat bile [4] | expression level of Mrp3 (Mrp3) [% non-transfected control] | reduction in endogenous Mrp2 expression (Mrp2) [%] | radixin expression level (radixin) [% non-transfected control] | other results |
| --- | --- | --- | --- | --- | --- | --- | --- |
| CC1(C)SSC(C)(C)[C@@H](NC(=O)[C@@H](N)Cc2ccc(O)cc2)C(=O)NCC(=O)N[C@@H](Cc2ccccc2)C(=O)N[C@H]1C(=O)O [[D-pen^2,5]enkephalin] | significantly higher | not significantly different | – | – | – | – | clearance ([3]; in vivo biliary clearance, calculated by Equation 1 from data of Chen and Pollack): 18.5 mL/min/kg; clearance ([3]; in vivo intrinsic biliary clearance, calculated from Equation 2 (well-stirred model)): ~34.4 mL/min/kg |
| CN(Cc1cnc2nc(N)nc(N)c2n1)c1ccc(C(=O)N[C@@H](CCC(=O)O)C(=O)O)cc1 [methotrexate] | significantly higher | not significantly different | 50-60% | – | – | – | in vitro biliary clearance ([1]; 96-hr sandwich-cultured hepatocytes, 10-min cumulative uptake, Equation 4): 4.1 ± 1.0 mL/min/kg; percentage of the dose excreted in rat bile ([4]; listed as Methotrexate): approximately 60%; in vivo biliary clearance [4]: 12.1 ml/min per kg body weight; clearance ([3]; in vivo intrinsic biliary clearance): ~17.3 mL/min/kg |
| O=C(O)c1ccccc1O [salicylate] | no effect | not significantly different | negligible | – | – | – | Biliary Excretion Index [1, 5]: approximately zero; also recorded: negligible; in vivo biliary clearance [4]: ~0 ml/min per kg body weight |
| inulin | – | – | negligible | – | – | – | Biliary Excretion Index [1, 5]: approximately zero; also recorded: negligible; cumulative uptake (of initial added substrate) ([1]; long-term cultured hepatocytes, all incubation times, 1 μM): less than 0.01%; cumulative uptake (of initial added substrate) ([2]; short-term cultured hepatocytes, all incubation times, 1 μM): less than 0.01% |
| siMrp2AB1: siRNA targeting rat Mrp2, GGCUAUAUCUGUGCAAUCCUA (SEQ ID NO: 3), nucleotides 1158-1178 of Mrp2 cDNA (listed as RNA, chemistry not given here) | – | – | – | 89±11 | 50 | 95±17 | maximum reduction in endogenous Mrp2 expression (Mrp2): 79% |
| siMrp2AB2: siRNA targeting rat Mrp2, GGCUAGGAAGCAGUACACCAU (SEQ ID NO: 4) (listed as RNA, chemistry not given here) | – | – | – | 96±15 | 40±20 | 100±8 | – |
| siMrp2AB3: siRNA targeting rat Mrp2, GGCAGUAGGGUGGUGGUCCAU (SEQ ID NO: 5) (listed as RNA, chemistry not given here) | – | – | – | 86±11 | 26±18 | 103±7 | – |
